Reference: patent US7674819B2 (Warner-Lambert Company LLC, priority 2005, dated 2010)
Like-named read-outs stand apart in the source and are kept apart here.

How the values were obtained:
hAR = molecular target: T1, hAR (Homo sapiens, UniProt P10275); assay: Competitive binding of 3H-DHT to baculovirus/Sf9 generated hAR extracts; conditions: one hour at 4° C., mean of multiple tests
T1 sequence (P10275 1-920): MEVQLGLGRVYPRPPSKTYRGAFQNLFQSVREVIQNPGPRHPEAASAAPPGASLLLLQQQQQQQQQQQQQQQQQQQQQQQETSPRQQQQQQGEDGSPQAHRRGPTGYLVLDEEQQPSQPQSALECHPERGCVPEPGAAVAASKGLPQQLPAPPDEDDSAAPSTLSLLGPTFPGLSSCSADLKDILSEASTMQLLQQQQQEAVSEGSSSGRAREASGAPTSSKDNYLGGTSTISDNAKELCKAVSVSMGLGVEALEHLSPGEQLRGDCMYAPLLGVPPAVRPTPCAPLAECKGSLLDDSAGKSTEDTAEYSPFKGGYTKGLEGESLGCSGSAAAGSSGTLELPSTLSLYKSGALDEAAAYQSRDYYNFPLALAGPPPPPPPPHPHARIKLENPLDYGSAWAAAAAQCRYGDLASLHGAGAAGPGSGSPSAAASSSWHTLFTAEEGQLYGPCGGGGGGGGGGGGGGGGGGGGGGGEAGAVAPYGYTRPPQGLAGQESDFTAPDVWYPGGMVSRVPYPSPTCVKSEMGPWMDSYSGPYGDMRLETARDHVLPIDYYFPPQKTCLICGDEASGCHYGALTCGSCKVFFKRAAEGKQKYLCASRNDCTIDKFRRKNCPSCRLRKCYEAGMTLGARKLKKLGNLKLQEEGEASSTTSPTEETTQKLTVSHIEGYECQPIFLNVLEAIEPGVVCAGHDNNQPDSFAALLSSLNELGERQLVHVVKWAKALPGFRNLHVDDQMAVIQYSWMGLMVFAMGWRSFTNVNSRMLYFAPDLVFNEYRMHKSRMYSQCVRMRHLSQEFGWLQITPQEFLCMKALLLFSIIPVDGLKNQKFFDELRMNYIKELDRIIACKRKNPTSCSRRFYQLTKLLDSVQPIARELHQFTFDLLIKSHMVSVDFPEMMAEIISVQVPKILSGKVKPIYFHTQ
How it was run: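 Baculovirus/Sf9-expressed hAR extract incubated with test compound, hydroxylapatite and 1 nM 3H-DHT tracer for 1 h at 4° C, then washed free of unbound tracer. Affinity given as concentration inhibiting half of maximal 3H-DHT binding.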

male Syrian hamsters = assay: Animal Model for Inhibition of Sebum Production (hamster ear, HPLC of sebum lipids); type: in vivo, Syrian hamster; conditions: twice daily, five days a week, 4 weeks; for % CE reduction: cholesterol ester vs vehicle control; for % WE reduction: wax ester vs vehicle control
Protocol: Luderschmidt et al describes an animal model for testing whether compounds are capable of modulating sebum secretion. Arch. Derm. Res. 258, 185-191 (1977). This model uses male Syrian hamsters, whose ears contain sebaceous glands. Based on binding data and cellular assay data, selected compounds were chosen for screening in this model. Those compounds included the products of Examples 1, 20, 81, 82, and 109.
Testing for sebum inhibition was carried out in the following manner. Male Syrian hamsters aged 9 to 10 weeks were introduced into the laboratory environment and acclimated for 2 weeks prior to use in the study. Each group consisted of 5 animals and run in parallel with vehicle and positive controls. Prior to administration, a sufficient quantity each compound was dissolved in 1 mL of a solvent consisting of ethanol, transcutol, and propylene glycol (60/20/20% v/v/v) to achieve the final concentration specified in Table VIII below.
Animals were dosed topically twice daily, five days a week, for 4 weeks. Each dose consisted of 25 micro liters of vehicle control or drug. The dose was applied to the ventral surfaces of both the right and left ears. All animals were sacrificed approximately 18-24 hours after the final dose. The right ears were collected from each animal and used for sebum analysis.
The ears were prepped for HPLC analysis in the following manner. One 8 mm distal biopsy punch was taken, just above the anatomical “V” mark in the ear to normalize the sample area. The punch was pulled apart. The ventral biopsy surface (the area where the topical dose was directly applied to the sebaceous glands) was retained for testing and the dorsal surface of the biopsy punch was discarded.
Tissue samples were blown with N2 gas and stored at −80° C. under nitrogen until HPLC analysis. In addition to ear samples, an aliquot of each drug and vehicle (at least 250 ul) was also stored at −80° C. for inclusion in the HPLC analysis.
HPLC analysis was carried out on an extract of the tissue sample. Tissue samples were contacted with 3 ml of solvent (a 4:1 admixture of 2,2,4-trimethylpentane and isopropyl alcohol). The mixture was shaken for 15 minutes and stored overnight at room temperature, protected from light. The next morning 1 milliliter of water was added to the sample and shaken for 15 minutes. The sample was then centrifuged at approximately 1500 rpm for 15 minutes. Two ml of the organic phase (top layer) was transferred to a glass vial, dried at 37° C., under nitrogen, for approximately 1 hour, and then lyophilized for approximately 48 hours. The samples were then removed from the lyophilizer and each vial was reconstituted with 600 μl of solvent A (trimethylpentane/tetrahydrofuran (99:1). The samples were then recapped and vortexed for 5 minutes.
200 μl of each sample was then transferred to a pre-labeled 200 μl HPLC vial with 200 μL glass inserts. The HPLC vials were placed in the autosampler tray for the Agilent 1100 series HPLC unit. The Agilent 1100 HPLC system consisted of a thermostated autosampler, a quaternary pump, a column heater, and an A/D interface module. All components were controlled by Agilent ChemStation software. A Waters Spherisorb S3W 4.6×100 mm analytical column was maintained at 30° C. by the Agilent column heater unit.
The HPLC autosampler was programmed to maintain the sample temperature at 20 C throughout the run.
10 uL of each sample was injected in triplicate into the column. Two solvents were used for the solvent gradient. Solvent A was an admixture of trimethylpentane and tetrahydrofuran (99:1). Solvent B was ethylacetate. The gradient utilized is described in the table below: […]
The Sedex 75 Evaporative Light Scattering Detector (ELSD) was operated at 45° C. with a gain of 5, and N2 pressure maintained at 3.1 bar. Analog signal obtained by the instrument was sent to the Agilent A/D interface module where it was converted to a digital output. […]

[1] = IC50, concentration at which one half of maximum binding of 1 nM 3H-DHT to hAR is inhibited
[2] = concentration at which one half of maximum binding of 1 nM 3H-DHT to hAR is inhibited, read-out: IC50

SMILES | IC50 (hAR; [1]) | % CE reduction (male Syrian hamsters; topical 2%) | Sum of WE & CE (male Syrian hamsters; topical 2%) | % WE reduction (male Syrian hamsters; topical 2%) | % CE reduction (male Syrian hamsters; topical 1%) | Sum of WE & CE (male Syrian hamsters; topical 1%) | % WE reduction (male Syrian hamsters; topical 1%) | % CE reduction (male Syrian hamsters; topical 3%) | Sum of WE & CE (male Syrian hamsters; topical 3%) | % WE reduction (male Syrian hamsters; topical 3%) | IC50 (hAR; [2])
CCCCN1CC(C)(C)C(Oc2ccc(C#N)c(C(F)(F)F)c2)C1=O (single isomer, unassigned; (+)) [Example 20, (+)-4-(1-Butyl-4,4-dimethyl-2-oxo-pyrrolidin-3-yloxy)-2-trifluoromethyl-benzonitrile] | 97 nM | 83% | 149 | 66% | – | – | – | – | – | – | –
CCCS(=O)(=O)N1CC(C)(C)C(Oc2ccc(C#N)c(C(F)(F)F)c2)C1=O (single isomer, unassigned; (+)) [Example 82, (+)-4-[4,4-Dimethyl-2-oxo-1-(propane-1-sulfonyl)-pyrrolidin-3-yloxy]-2-trifluoromethyl-benzonitrile] | 47 nM | – | – | – | 72% | 129 | 57% | – | – | – | –
CC[C@H](C)N1CC(C)(C)[C@@H](Oc2ccc(C#N)c(C(F)(F)F)c2)C1=O [Example 1, (3R,S)-(+)-4-(1-sec-Butyl-4,4-dimethyl-2-oxo-pyrrolidin-3-yloxy)-2-trifluoromethyl-benzonitrile] | 136 nM | – | – | – | 70% | 125 | 55% | – | – | – | –
CCCN1CC(C)(C)C(Oc2ccc(C#N)c(C(F)(F)F)c2)C1=O (stereo not shown) [Example 4, 4-(4,4-dimethyl-2-oxo-1-propyl-pyrrolidin-3-yloxy)-2-trifluoromethyl-benzonitrile] | 188 nM | – | – | – | – | – | – | 76% | 166 | 90% | –
CCCN1CC(C)(C)[C@@H](Oc2ccc(C#N)c(C(F)(F)F)c2)C1=O [Example 4A, (+)-4-(1-Propyl-4,4-dimethyl-2-oxo-pyrrolidin-3-yloxy)-2-trifluoromethyl-benzonitrile (E2)] | 230 nM | – | – | – | 76% | 161 | 85% | – | – | – | –
CC1(C)CN(S(C)(=O)=O)C(=O)C1Oc1ccc(C#N)c(C(F)(F)F)c1 (stereo not shown) [Example 81, 4-(1-methanesulfonyl-4,4-dimethyl-2-oxo-pyrrolidin-3-yloxy)-2-trifluoromethyl-benzonitrile] | – | – | – | – | 12% | 20 | 8% | – | – | – | 139 nM
CC(c1ccccc1)N1CC(C)(C)C(Oc2ccc(C#N)cc2Cl)C1=O (stereo not shown) [Example 109] | – | – | – | – | 64% | 116 | 52% | – | – | – | 203 nM
